Reference: patent publication US10183938B2, “Geminal substituted quinuclidine amide compounds as agonists of α-7 nicotonic acetylcholine receptors” (AXOVANT SCIENCES GMBH, priority 2014, dated 2019)
Where a name gives a salt, the structure may show the parent alone.

Molecular target: human α7 nAChRs transiently expressed in Xenopus laevis oocytes (Homo sapiens (Human), UniProt P36544)
Assay: Oocyte electrophysiology screen (TEVC)
Type: cell-based
Conditions: 0.01 mM test compound, peak current relative to 0.2 mM ACh
Procedure: Oocyte Electrophysiology Screen (% ACh @ 10 μM Oocyte)
The Oocyte Electrophysiology Screen studies were performed under contract by HiQScreen Geneva, Switzerland. All experiments were carried out at human α7 nAChRs transiently expressed in Xenopus laevis oocytes using the method of cDNA expression. Currents evoked by acetylcholine or other agonist ligands were recorded using the standard two-electrode voltage-clamp configuration (TEVC). X. laevis oocytes were prepared and injected using standard procedures. Briefly, ovaries were harvested from X. laevis females that were deeply anesthetized and pithed following the animal rights rule from the Geneva canton. A small piece of ovary was isolated for immediate preparation while the remaining part was placed at 4° C. in a sterile Barth solution containing in mM: NaCl 88, KCl 1, NaHCO3 2.4, HEPES 10, MgSO4.7H2O 0.82, Ca(NO3)2.4H2O 0.33, CaCl2.6H2O 0.41, at pH 7.4, and supplemented with 20 μg/mL of kanamycin, 100 unit/mL penicillin and 100 μg/mL streptomycin. […] Cells were held at −80 mV. Data were filtered at 10 Hz, captured at 100 Hz and analyzed using proprietary data acquisition and analysis software running under Matlab (Mathworks Inc.).
Experimental Protocol and Analysis
After establishing a baseline transmembrane current, acetylcholine (ACh) was applied for 5 seconds at a concentration of 0.2 mM to establish a control ACh-evoked current response. Following a wash period of 90 s in OR2 medium (free of ACh), cells were then exposed for 30 s to the test compound applied at 0.01 mM. The same reference ACh test pulse was immediately given at the end of the compound exposure and again after 90 s of recovery in OR2 Medium (free of ACh or test compound). All data were determined in triplicate. The response evoked by the test compound was expressed as a percentage of that evoked by ACh: Response (% ACh)=100×(Itest/IACh) where Itest is the peak inward current measured during exposure to 0.01 mM of test compound and IACh is the peak inward current measured in the presence of ACh.

Chain of human α7 nAChRs transiently expressed in Xenopus laevis oocytes (P36544 23-502 limits assumed): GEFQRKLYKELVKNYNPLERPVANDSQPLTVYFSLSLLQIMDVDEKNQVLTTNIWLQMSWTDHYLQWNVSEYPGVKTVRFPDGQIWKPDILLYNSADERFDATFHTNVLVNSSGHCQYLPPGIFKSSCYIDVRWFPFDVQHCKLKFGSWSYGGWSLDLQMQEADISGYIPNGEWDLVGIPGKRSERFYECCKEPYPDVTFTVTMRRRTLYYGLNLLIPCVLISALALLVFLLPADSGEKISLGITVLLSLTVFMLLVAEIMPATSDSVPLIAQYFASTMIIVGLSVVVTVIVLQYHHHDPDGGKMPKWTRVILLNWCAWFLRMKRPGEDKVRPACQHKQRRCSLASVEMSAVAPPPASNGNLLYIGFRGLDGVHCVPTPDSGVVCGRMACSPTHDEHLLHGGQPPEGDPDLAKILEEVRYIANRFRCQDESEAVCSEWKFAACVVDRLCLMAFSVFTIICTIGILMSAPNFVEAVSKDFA

| Structure (SMILES) | % ACh @ 10 μM Oocyte (hydrochloride) | % ACh @ 10 μM Oocyte |
| --- | --- | --- |
| CC1(C)C(NC(=O)c2cc3ccccc3s2)C2CCN1CC2 (single isomer, unassigned; enantiomer1) [1a, N-(2,2-dimethylquinuclidin-3-yl)benzo[b]thiophene-2-carboxamide-enantiomer1 hydrochloride] | 1470 % ACh |  |
| O=C(NC1C2CCN(CC2)C12CC2)c1cc2ccccc2s1 (single isomer, unassigned; enantiomer1) [54a, N-(1′-azaspiro[cyclopropane-1,2′-bicyclo[2.2.2]octan]-3′-yl)benzo[b]thiophene-2-carboxamide-enantiomer1 hydrochloride] | 4.5 % ACh |  |
| O=C(NC1C2CCN(CC2)C12CC2)c1cc2cccc(F)c2s1 (single isomer, unassigned; enantiomer1) [57a, 7-fluoro-N-(1′-azaspiro[cyclopropane-1,2′-bicyclo[2.2.2]octan]-3′-yl)benzo[b]thiophene-2-carboxamide-enantiomer1 hydrochloride] | 386 % ACh |  |
| Nc1ccc2cc(C(=O)NC3C4CCN(CC4)C34CC4)sc2c1 (single isomer, unassigned; enantiomer1) [62a, 6-amino-N-(1′-azaspiro[cyclopropane-1,2′-bicyclo[2.2.2]octan]-3′-yl)benzo[b]thiophene-2-carboxamide-enantiomer1 hydrochloride] | 35 % ACh |  |
| O=C(NC1C2CCN(CC2)C12CC2)c1cc2ccc(C(F)(F)F)cc2s1 (single isomer, unassigned; enantiomer1) [63a, N-(1′-azaspiro[cyclopropane-1,2′-bicyclo[2.2.2]octan]-3′-yl)-6-(trifluoromethyl)benzo[b]thiophene-2-carboxamide-enantiomer1] |  | 3 % ACh |
| O=C(NC1C2CCN(CC2)C12CC2)c1cc2cc(Cl)ccc2s1 (single isomer, unassigned; enantiomer1) [66a, 5-chloro-N-(1′-azaspiro[cyclopropane-1,2′-bicyclo[2.2.2]octan]-3′-yl)benzo[b]thiophene-2-carboxamide-enantiomer1 hydrochloride] | 2 % ACh |  |
| O=C(NC1C2CCN(CC2)C12CC2)c1cc2cc(Cl)ccc2s1 (single isomer, unassigned; enantiomer1) [66b, 5-chloro-N-(1′-azaspiro[cyclopropane-1,2′-bicyclo[2.2.2]octan]-3′-yl)benzo[b]thiophene-2-carboxamide-enantiomer1 hydrochloride] | 29 % ACh |  |
| O=C(NC1C2CCN(CC2)C12CC2)c1cc2cc(Cl)c(Cl)cc2s1 (single isomer, unassigned; enantiomer1) [67a, 5,6-dichloro-N-(1′-azaspiro[cyclopropane-1,2′-bicyclo[2.2.2]octan]-3′-yl)benzo[b]thiophene-2-carboxamide-enantiomer1 hydrochloride] |  | 1 % ACh |
| Cc1ccc2sc(C(=O)NC3C4CCN(CC4)C34CC4)cc2c1 (single isomer, unassigned; enantiomer1) [69a, 5-methyl-N-(1′-azaspiro[cyclopropane-1,2′-bicyclo[2.2.2]octan]-3′-yl)benzo[b]thiophene-2-carboxamide-enantiomer1 hydrochloride] | 162 % ACh |  |
| O=C(NC1C2CCN(CC2)C12CC2)c1cc2cc(C(F)(F)F)ccc2s1 (single isomer, unassigned; enantiomer1) [70a, N-(1′-azaspiro[cyclopropane-1,2′-bicyclo[2.2.2]octan]-3′-yl)-5-(trifluoromethyl)benzo[b]thiophene-2-carboxamide-enantiomer1 hydrochloride] | 2 % ACh |  |
| O=C(NC1C2CCN(CC2)C12CC2)c1cc2ccc(C3CC3)cc2s1 (single isomer, unassigned; enantiomer1) [71a, 6-cyclopropyl-N-(1′-azaspiro[cyclopropane-1,2′-bicyclo[2.2.2]octan]-3′-yl)benzo[b]thiophene-2-carboxamide-enantiomer1 hydrochloride] | 739 % ACh |  |
| O=C(NC1C2CCN(CC2)C12CC2)c1cc2cc(C3CC3)ccc2s1 (single isomer, unassigned; enantiomer1) [72a, 5-cyclopropyl-N-(1′-azaspiro[cyclopropane-1,2′-bicyclo[2.2.2]octan]-3′-yl)benzo[b]thiophene-2-carboxamide-enantiomer1 hydrochloride] | 188 % ACh |  |
| COc1ccc2cc(C(=O)NC3C4CCN(CC4)C34CC4)sc2c1 (single isomer, unassigned; enantiomer1) [73a, 6-methoxy-N-(1′-azaspiro[cyclopropane-1,2′-bicyclo[2.2.2]octan]-3′-yl)benzo[b]thiophene-2-carboxamide-enantiomer1 hydrochloride] | 1036 % ACh |  |
| COc1ccc2sc(C(=O)NC3C4CCN(CC4)C34CC4)cc2c1 (single isomer, unassigned; enantiomer1) [74a, 5-methoxy-N-(1′-azaspiro[cyclopropane-1,2′-bicyclo[2.2.2]octan]-3′-yl)benzo[b]thiophene-2-carboxamide-enantiomer1 hydrochloride] | 32 % ACh |  |
| CC1(C)C(NC(=O)c2cc3ccccc3s2)C2CCN1CC2 (single isomer, unassigned; enantiomer2) [1b, N-(2,2-dimethylquinuclidin-3-yl)benzo[b]thiophene-2-carboxamide-enantiomer2 hydrochloride] | 2 % ACh |  |
| O=C(NC1C2CCN(CC2)C12CC2)c1cc2ccccc2s1 (single isomer, unassigned; enantiomer2) [54b, N-(1′-azaspiro[cyclopropane-1,2′-bicyclo[2.2.2]octan]-3′-yl)benzo[b]thiophene-2-carboxamide-enantiomer2 hydrochloride] | 1319 % ACh |  |
| O=C(NC1C2CCN(CC2)C12CC2)c1cc2cccc(Cl)c2s1 (single isomer, unassigned; enantiomer2) [56b, 7-chloro-N-(1′-azaspiro[cyclopropane-1,2′-bicyclo[2.2.2]octan]-3′-yl)benzo[b]thiophene-2-carboxamide-enantiomer2] |  | 0 % ACh |
| O=C(NC1C2CCN(CC2)C12CC2)c1cc2cccc(F)c2s1 (single isomer, unassigned; enantiomer2) [57b, 7-fluoro-N-(1′-azaspiro[cyclopropane-1,2′-bicyclo[2.2.2]octan]-3′-yl)benzo[b]thiophene-2-carboxamide-enantiomer2 hydrochloride] | 4 % ACh |  |
| O=C(NC1C2CCN(CC2)C12CC2)c1ccc2ccsc2c1 (single isomer, unassigned; enantiomer2) [58b, N-(1′-azaspiro[cyclopropane-1,2′-bicyclo[2.2.2]octan]-3′-yl)benzo[b]thiophene-6-carboxamide-enantiomer2] |  | 5 % ACh |
| O=C(NC1C2CCN(CC2)C12CC2)c1ccc2occc2c1 (single isomer, unassigned; enantiomer2) [59b, N-(1′-azaspiro[cyclopropane-1,2′-bicyclo[2.2.2]octan]-3′-yl)benzofuran-5-carboxamide-enantiomer2] |  | 27 % ACh |
| O=C(NC1C2CCN(CC2)C12CC2)c1cc2cccc(C(F)(F)F)c2s1 (single isomer, unassigned; enantiomer2) [60b, N-(1′-azaspiro[cyclopropane-1,2′-bicyclo[2.2.2]octan]-3′-yl)-7-(trifluoromethyl)benzo[b]thiophene-2-carboxamide-enantiomer2] |  | 1 % ACh |
| O=C(NC1C2CCN(CC2)C12CC2)c1cc2ccc(F)cc2s1 (single isomer, unassigned; enantiomer2) [61b, 6-fluoro-N-(1′-azaspiro[cyclopropane-1,2′-bicyclo[2.2.2]octan]-3′-yl)benzo[b]thiophene-2-carboxamide-enantiomer2] |  | 1 % ACh |
| Nc1ccc2cc(C(=O)NC3C4CCN(CC4)C34CC4)sc2c1 (single isomer, unassigned; enantiomer2) [62b, 6-amino-N-(1′-azaspiro[cyclopropane-1,2′-bicyclo[2.2.2]octan]-3′-yl)benzo[b]thiophene-2-carboxamide-enantiomer2 hydrochloride] | 995 % ACh |  |
| O=C(NC1C2CCN(CC2)C12CC2)c1cc2ccc(C(F)(F)F)cc2s1 (single isomer, unassigned; enantiomer2) [63b, N-(1′-azaspiro[cyclopropane-1,2′-bicyclo[2.2.2]octan]-3′-yl)-6-(trifluoromethyl)benzo[b]thiophene-2-carboxamide-enantiomer2] |  | 3 % ACh |
